Laboratory results from patent publication US9156822B2, “Functionally selective ligands of dopamine D2 receptors” (The University of North Carolina at Chapel Hill, priority 2010, dated 2015).
Where two headings read alike, the source gives them in different places.

Experiments:
D2 receptors [1] = molecular target: T1, D2 receptors (Homo sapiens (Human), UniProt P14416); assay: CHO-D2 radioligand binding assay ([3H]N-methylspiperone competition); details: CHO-D2 membranes, [3H]N-methylspiperone; read-out: D2 Binding Ki ± SEM
Target sequence in this assay (P14416 whole entry): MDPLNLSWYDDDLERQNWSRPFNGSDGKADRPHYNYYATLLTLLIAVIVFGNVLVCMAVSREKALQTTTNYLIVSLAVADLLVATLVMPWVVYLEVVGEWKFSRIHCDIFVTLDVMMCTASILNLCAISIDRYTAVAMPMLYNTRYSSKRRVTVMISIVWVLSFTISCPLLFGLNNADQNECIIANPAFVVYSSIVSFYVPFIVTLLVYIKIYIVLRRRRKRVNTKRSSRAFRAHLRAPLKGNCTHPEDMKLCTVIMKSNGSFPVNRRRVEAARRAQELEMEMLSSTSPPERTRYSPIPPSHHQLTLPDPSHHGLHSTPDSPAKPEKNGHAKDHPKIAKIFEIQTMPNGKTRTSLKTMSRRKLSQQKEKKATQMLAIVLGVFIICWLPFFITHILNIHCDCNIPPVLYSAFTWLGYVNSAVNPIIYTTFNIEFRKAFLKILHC

hD2 receptors = hD2 receptors (Homo sapiens (Human), UniProt P14416); assay: D2 mediated cAMP GloSensor assay; format: cell-based; details: for EC50: HEK293T, isoproterenol-stimulated cAMP; for Emax: normalized to quinpirole, negative = inverse agonist, read-out: cAMP (GloSensor) Emax; as to cAMP (GloSensor) activity in words (merged EC50/Emax cell): key: neutral: Neutral ligands are either antagonists or are inactive
Chain of hD2 receptors (P14416 whole entry): as above

D2 receptors [2] = molecular target: T1, D2 receptors; assay: D2 β-arrestin recruitment (Tango) assay; format: cell-based; details: for Emax: normalized to quinpirole (100%)
Protocol: The next day, cells were plated in white, clear-bottom, 384-well plates (Greiner, 10,000 cells/well, 50 μl/well) in DMEM containing 1% dialyzed fetal bovine serum. […] Data were normalized to vehicle (0%) and quinpirole (100%) controls and regressed using the sigmoidal dose-response function built into GraphPad Prism 4.0.
Target sequence in this assay (P14416 whole entry, looked up): as the sequence (P14416 whole entry) above

in vivo = details: mouse
[3] = HTLA cells, read-out: β-arrestin (Tango) EC50

SMILES	Ki (D2 receptors [1])	cAMP (GloSensor) activity in words (merged EC50/Emax cell) (hD2 receptors)	β-arrestin (Tango) % activ at 1 μM (D2 receptors [2])	Emax (D2 receptors [2])	EC50 (hD2 receptors)	Emax (hD2 receptors)	EC50 (D2 receptors [2]; [3])	also measured
O=c1[nH]c2ccc(OCCCCN3CCC(c4cccc(Cl)c4Cl)CC3)cc2[nH]1 [Compound 24, 5-(4-(4-(2,3-dichlorophenyl)piperidin-1-yl)butoxy)-1H-benzo[d]imidazol-2(3H)-one]								melting point: 180 to 182 °C
O=C1CCc2ccc(Oc3cccc(CN4CCN(c5cccc(Cl)c5Cl)CC4)c3)cc2N1 [Compound 30, 7-(3-((4-(2,3-dichlorophenyl)piperazin-1-yl)methyl)phenoxy)-3,4-dihydro quinolin-2(1H)-one]	113 ± 18 nM	neutral	9%	58%				melting point: 182 to 183 °C; EC50 (D2 receptors [2]): 297 nM
O=C1CCc2ccc(OCC3CCC(CN4CCN(c5cccc(Cl)c5Cl)CC4)CC3)cc2N1 (stereo not drawn) [Compound 26, 7-((4-((4-(2,3-dichlorophenyl)piperazin-1-yl)methyl)cyclohexyl)methoxy)-3,4-dihydroquinolin-2(1H)-one]	145 ± 22 nM		6%	51%	46000 nM	-25%	2100 nM	
O=C1NCCc2ccc(OCCCCN3CCCN(c4cccc(Cl)c4Cl)CC3)cc21 [Compound 6, 7-(4-(4-(2,3-dichlorophenyl)-1,4-diazepan-1-yl)butoxy)-3,4-dihydroisoquinolin-1(2H)-one]								melting point: 86 to 88 °C
O=c1[nH]c2ccc(OCCCN3CCCN(c4cccc(Cl)c4Cl)CC3)cc2[nH]1 [Compound 19, 5-(3-(4-(2,3-dichlorophenyl)-1,4-diazepan-1-yl)propoxy)-1H-benzo[c]imidazol-2(3H)-one]	4.5 ± 0.2 nM	neutral		48%			8.5 nM	melting point: 148 to 150 °C
COc1ccccc1N1CCCN(CCCCOc2ccc3c(c2)NC(=O)CC3)CC1 [Compound 9, 7-(4-(4-(2-methoxyphenyl)-1,4-diazepan-1-yl)butoxy)-3,4-dihydroquinolin-2(1H)-one]	4 nM			26%	163 nM	-63%	4.6 nM	
CCOc1ccccc1N1CCCN(CCCCOc2ccc3c(c2)NC(=O)CC3)CC1 [Compound 12, 7-(4-(4-(2-ethoxyphenyl)-1,4-diazepan-1-yl)butoxy)-3,4-dihydroquinolin-2(1H)-one]	4.1 ± 0.2 nM	neutral		41%			4.3 nM	
Clc1cccc(N2CCN(CCCOc3ccc4scnc4c3)CC2)c1Cl [Compound 23, 5-(3-(4-(2,3-dichlorophenyl)piperazin-1-yl)propoxy)benzo[d]thiazole]	30 ± 5 nM		48%	91%	9.8 nM	-16%	107 nM	melting point: 127 to 129 °C
CCOc1ccccc1N1CCCN(CCCCOc2ccc3ccc(=O)[nH]c3c2)CC1 [Compound 14, 7-(4-(4-(2-ethoxyphenyl)-1,4-diazepan-1-yl)butoxy)quinolin-2(1H)-one]				58%				
Clc1cccc(N2CCCN(CCCOc3ccc4scnc4c3)CC2)c1Cl [Compound 8, 5-(3-(4-(2,3-dichlorophenyl)-1,4-diazepan-1-yl)propoxy)benzo[d]thiazole]						-26%		melting point: 93 to 94 °C
O=C1CCc2ccc(OCCCCN3CCN(c4cccc5c4OCCO5)CC3)nc2N1 [Compound 41, 7-(4-(4-(2,3-dihydrobenzo[b][1,4]dioxin-5-yl)piperazin-1-yl)butoxy)-3,4-dihydro-1,8-naphthyridin-2(1H)-one]	0.45 ± 0.02 nM			31%	0.4 nM	-19%	0.6 nM	
O=C1CCc2ccc(OCCCCN3CCN(c4cccc5c4OCCO5)CC3)cc2N1 [Compound 40, 7-(4-(4-(2,3-dihydrobenzo[b][1,4]dioxin-5-yl)piperazin-1-yl)butoxy)-3,4-dihydroquinolin-2(1H)-one]	0.3 ± 0.02 nM	neutral		33%			1.5 nM	
O=C1CCc2ccc(Oc3ccc(CN4CCN(c5cccc(Cl)c5Cl)CC4)cc3)cc2N1 [Compound 31, 7-(4-((4-(2,3-dichlorophenyl)piperazin-1-yl)methyl)phenoxy)-3,4-dihydro quinolin-2(1H)-one]	108 ± 18 nM		16%	49%	5.7 nM	-47%	399 nM	
CC(C)Oc1ccccc1N1CCCN(CCCCOc2ccc3ccc(=O)[nH]c3c2)CC1 [Compound 18, 7-(4-(4-(2-isopropoxyphenyl)-1,4-diazepan-1-yl)butoxy)quinolin-2(1H)-one]	0.93 ± 0.03 nM			58%	0.1 nM	32%	4.2 nM	
CC(C)Oc1ccccc1N1CCCN(CCCCOc2ccc3c(c2)NC(=O)CC3)CC1 [Compound 16, 7-(4-(4-(2-isopropoxyphenyl)-1,4-diazepan-1-yl)butoxy)-3,4-dihydroquinolin-2(1H)-one]	0.87 ± 0.04 nM	neutral		53%			4.2 nM	
CC(C)Oc1ccccc1N1CCCN(CCCCOc2ccc3c(n2)NC(=O)CC3)CC1 [Compound 17, 7-(4-(4-(2-isopropoxyphenyl)-1,4-diazepan-1-yl)butoxy)-3,4-dihydro-1,8-naphthyridin-2(1H)-one]	1.29 ± 0.03 nM			56%	0.2 nM	18%	4.6 nM	
Clc1cccc(N2CCN(CCCCOc3ccc4cn[nH]c4c3)CC2)c1Cl [Compound 28, 6-(4-(4-(2,3-dichlorophenyl)piperazin-1-yl)butoxy)-1H-indazole]	66 ± 10 nM		18%	65%	5.7 nM	-29%	92 nM	
CC(=O)Nc1cc(OCCCCN2CCN(c3cccc(Cl)c3Cl)CC2)ccc1C [Compound 43, N-(5-(4-(4-(2,3-dichlorophenyl)piperazin-1-yl)butoxy)-2-methylphenyl)acetamide]	72 ± 4 nM	neutral		59%			9.2 nM	
COc1ccccc1N1CCCN(CCCCOc2ccc3c(n2)NC(=O)CC3)CC1 [Compound 11, 7-(4-(4-(2-methoxyphenyl)-1,4-diazepan-1-yl)butoxy)-3,4-dihydro-1,8-naphthyridin-2(1H)-one]				21%		-118%		
COc1ccccc1N1CCCN(CCCCOc2ccc3ccc(=O)[nH]c3c2)CC1 [Compound 10, 7-(4-(4-(2-methoxyphenyl)-1,4-diazepan-1-yl)butoxy)quinolin-2(1H)-one]				16%				
Clc1cccc(N2CCCN(CCCCOc3ccc4scnc4c3)CC2)c1Cl [Compound 7, 5-(4-(4-(2,3-dichlorophenyl)-1,4-diazepan-1-yl)butoxy)benzo[d]thiazole]								melting point: 82 to 84 °C
O=c1[nH]c2ccc(OCCCN3CCN(c4cccc(Cl)c4Cl)CC3)cc2[nH]1 [Compound 34, 5-(3-(4-(2,3-dichlorophenyl)piperazin-1-yl)propoxy)-1H-benzo[d]imidazol-2(3H)-one]	25 ± 3 nM		36%	78%	512 nM	25%		EC50 (D2 receptors [2]): 52 nM
CCOc1ccccc1N1CCCN(CCCCOc2ccc3c(n2)NC(=O)CC3)CC1 [Compound 13, 7-(4-(4-(2-ethoxyphenyl)-1,4-diazepan-1-yl)butoxy)-3,4-dihydro-1,8-naphthyridin-2(1H)-one]	4.4 ± 0.3 nM	neutral		43%			4 nM	
O=C1NCCc2ccc(OCCCCN3CCN(c4cccc(Cl)c4Cl)CC3)cc21 [Compound 25, 7-(4-(4-(2,3-dichlorophenyl)piperazin-1-yl)butoxy)-3,4-dihydroisoquinolin-1(2H)-one]	18 ± 3 nM		12%	55%	3700 nM	-74%	18 nM	
O=c1[nH]c2ccc(OCCCCN3CCN(c4cccc(Cl)c4Cl)CC3)cc2[nH]1 [Compound 35]	15 ± 3 nM	neutral	19%				16 nM	
O=C1CCc2ccc(OCCCN3CCCN(c4cccc(Cl)c4Cl)CC3)cc2N1 [Compound 1, 7-(3-(4-(2,3-dichlorophenyl)-1,4-diazepan-1-yl)propoxy)-3,4-dihydroquinolin-2(1H)-one]								melting point: 130 to 131 °C
O=C1NCCc2ccc(OCCCN3CCN(c4cccc(Cl)c4Cl)CC3)cc21 [Compound 32, 7-(3-(4-(2,3-dichlorophenyl)piperazin-1-yl)propoxy)-3,4-dihydroisoquinolin-1(2H)-one]	18 ± 2 nM	neutral	44%	83%			30 nM	
COc1ccccc1N1CCN(CCCCOc2ccc3c(n2)NC(=O)CC3)CC1 [Compound 37]	1.7 ± 0.1 nM			67%	11 nM	17%		EC50 (D2 receptors [2]): 1 nM
O=C1CCc2ccc(OCCCCN3CCN(c4cccc(Cl)c4Cl)CC3)cc2N1 [Aripiprazole, aripiprazole, reference compound]								AUC(0-inf) (in vivo; brain): 1180 ng·h/mL; AUC(0-t) (in vivo; brain): 1100 ng·h/mL; Cmax (in vivo; brain): 166 ng/mL; Tmax (in vivo; brain): 30 min; AUC(0-inf) (in vivo; plasma): 445 ng·h/mL; AUC(0-t) (in vivo; plasma): 431 ng·h/mL; Cmax (in vivo; plasma): 75.6 ng/mL; Tmax (in vivo; plasma): 15 min
